Results published in patent US20080261898A1, “COMPOSITION AND METHOD FOR CANCER TREATMENT AND PREVENTION” (priority 2007, published 2008).

Legend:
[1] = system: DU-145 cells; assay: Cell cycle profile by flow cytometry, DU-145 cells; type: cell-based, human; conditions: 72 hr
Procedure: AC620 was incubated with DU-145 cells at various concentrations ([…]) for 72 hr. The cells were then collected and their cell cycle profiles were measured by flow cytometry analysis.

[2] = system: VEGF Receptor I (VEGF R1); assay: VEGF R1 expression in DU-145 cells, immunoblotting; type: cell-based, human; conditions: 0.1, 0.5, 1 μM, 72 hr
Procedure: DU-145 cells were treated with AC620 at various concentrations (0, 0.1, 0.5, 1 μM) for 72 hr. After 72 hr treatment, cell lysates were collected and immunoblotting was performed. The membranes were probed with primary antibodies against VEGF Receptor I (VEGF R1) and VEGF Receptor II (VEGF R2) and actin (Santa Cruz Biotechnology, Santa Cruz, Calif.) followed by horseradish peroxidase (HRP)-conjugated secondary antibodies and visualized using the Enhanced Chemi-Luminescence detection system (ECL) and ECL films.

[3] = system: p21; assay: p21 expression in xenograft tumor samples, immunoblotting; type: in vivo, mouse
Procedure: (§1) 8-12 week old athymic nude mice (Jackson Laboratories, Bar Harbor, Me., US) were randomly assigned to Control (n=10) and Treatment (n=10) groups. Tumor xenografts were generated by injecting DU-145 cells (4×10^6) subcutaneously into the mice (Day 1). 1 mg/kg body weight of AC620 or PBS (Control) was administrated to the mice by subcutaneous injection starting at the time of tumor implantation (Day 1) and the mice were treated twice a week. Tumors were measured periodically. At Day 30, the mice were sacrificed. Half of each tumor was processed for immunohistochemical analysis and the other half was frozen for subsequent protein and RNA analysis.
Xenograft mouse model was generated and AC620 or PBS (Control) was administrated to the transplanted mice for 30 days as described above. After the mice were sacrificed, immunoblotting analysis of the tumor samples was performed using Bcl-2 and p21 antibodies as described above.

[4] = system: LNCaP cells; assay: BrdU based cell proliferation assay, LNCaP cells; parameters: species or system human
Procedure: (§2) AC620 was incubated with hormone-refractory prostate cancer cell line DU-145 cells and hormone-responsive prostate cancer cell line LNCaP cells at various concentrations (0, 0.1, 0.5, 1, 5 μM) for 72 hr. LNCaP cells were maintained in RPMI 1640 medium (PAA Laboratories, Pashing, Austria) supplemented with 10% fetal calf serum (FCS) (Sigma, St. Louis, Mo.). The effect of AC620 on proliferation of DU-145 cells and LNCaP cells was determined by using a non-radioactive BrdU based cell proliferation assay kit (Roche, Switzerland) according to manufacturer's protocol. BrdU incorporation into the cellular DNA was determined by measuring the absorbance at 450 nm and 690 nm on an ELISA plate reader.
as §2, with “0 (Control) and” for “various concentrations (0, 0.1, 0.5, 1,”, “μM” for “μM)”, “for 24, 48 and” for “for”, “hr.” for “hr. LNCaP cells were maintained in RPMI 1640 medium (PAA Laboratories, Pashing, Austria) supplemented with 10% fetal calf serum (FCS) (Sigma, St. Louis, Mo.).”

[5] = system: CDK1; assay: CDK1 expression in xenograft tumor samples, immunoblotting; type: in vivo, mouse
Procedure: as §1
(§3) Xenograft mouse model was generated and AC620 or PBS (Control) was administrated to the transplanted mice for 30 days as described above. After the mice were sacrificed, immunoblotting analysis of the tumor samples was performed using CDK1 and CDK2 antibodies as described above.

[6] = system: VEGF; assay: VEGF expression in xenograft tumor samples, immunohistochemistry; type: in vivo, mouse; conditions: 1 mg/kg s.c. twice a week, 30 days
Procedure: as §1
(§4) Xenograft mouse model was generated and AC620 or PBS (Control) was administrated to the transplanted mice for 30 days as described above. After the mice were sacrificed, immunohistochemical analysis of the tumor samples was performed using VEGF and VEGF R2 antibodies with a semi-automatic system Ventana ES (Ventana Inc, Tucson, Ariz.). The specimens were viewed with an Olympus BX51 microscope. Expression of VEGF in tumor samples at RNA level was measured by RT-PCR.

[7] = system: VEGF RNA; assay: VEGF RNA expression in xenograft tumor samples, RT-PCR; type: in vivo, mouse; conditions: 30 days treatment
Procedure: as §1, §4

[8] = system: DU-145 tumor xenografts; assay: Tumor growth in DU-145 xenograft mouse model; type: in vivo; conditions: for decrease of tumor size: athymic nude mice, DU-145 xenograft
Procedure: as §1

[9] = system: DU-145 cells; assay: Apoptosis, Annexin V flow cytometry, DU-145 cells; type: cell-based, human; conditions: 72 hr
Procedure: AC620 was incubated with DU-145 cells and LNCaP cells at various concentrations (0, 0.1, 0.5, 1, 5 μM) for 72 hr. The effect of AC620 on apoptosis of DU-145 cells and LNCaP cells was assessed. The cells were washed in 1×PBS and resuspended in binding buffer (0.01M Hepes pH 7.4, 0.14M NaCl, 2.5 mM CaCl2), stained with Annexin V conjugated with APC (Pharmingen) and then subjected to flow cytometry analysis using FACS Caliber (BD Biosciences, San Jose, Calif.).

[10] = system: HT-29 cells; assay: BrdU based cell proliferation assay, HT-29 cells; conditions: 72 hr
Procedure: as §2
AC620 was incubated with metastatic colorectal cancer cell line HT-29 cells at various concentrations (0, 0.1, 0.5, 1, 4 μM) for 72 hr. The effect of AC620 on proliferation of HT-29 cells was determined by using a non-radioactive, BrdU based cell proliferation assay as described above.

[11] = system: CDK2; assay: CDK2 expression in xenograft tumor samples, immunoblotting; type: in vivo, mouse; conditions: Treatment 1
Procedure: as §1, §3

CC1OC(OCC2OC(Oc3c(-c4ccc(O)c(O)c4)oc4cc(O)c(O)cc4c3=O)C(O)C(O)C2O)C(O)C(O)C1O (stereo not shown) [AC620]
G1 phase cell cycle arrest ([1]; 0.1 μm): 0%
G1 phase cell cycle arrest ([1]; 0.5 μm): 4%
G1 phase cell cycle arrest ([1]; 1 μm): 18%
G1 phase cell cycle arrest ([1]; 5 μm): 32%
change in VEGF R1 expression [2]: no change
p21 expression reduced in tumor samples ([3]; Treatment 1): 0%
p21 expression reduced in tumor samples ([3]; Treatment 2): 70%
p21 expression reduced in tumor samples ([3]; Treatment 3): 60%
p21 expression reduced in tumor samples ([3]; Treatment 4): 90%
decrease in cell proliferation of LNCaP cells ([4]; 5 μM, after 24 hr): 16%
decrease in cell proliferation of LNCaP cells ([4]; 5 μM, after 48 hr): 20%
decrease in cell proliferation of LNCaP cells ([4]; 5 μM, after 72 hr (time study)): 65%
decrease in cell proliferation of LNCaP cells ([4]; 0.1 μm, 72 hr): 23%
decrease in cell proliferation of LNCaP cells ([4]; 0.5 μm, 72 hr): 20%
decrease in cell proliferation of LNCaP cells ([4]; 1 μm, 72 hr): 42%
decrease in cell proliferation of LNCaP cells ([4]; 5 μm, 72 hr (dose study)): 65%
reduction of CDK1 expression in tumor samples ([5]; Treatment 1): approximately 80%
reduction of CDK1 expression in tumor samples ([5]; Treatment 2): > 95%
reduction of CDK1 expression in tumor samples ([5]; Treatment 3): ~90%
reduction of CDK1 expression in tumor samples ([5]; Treatment 4): approximately 80%
expression of VEGF in tumors [6]: completely abolished
estimated decrease of VEGF RNA expression level in tumor samples [7]: ~90%
tumor growth compared to Control ([8]; 1 mg/kg subcutaneous twice a week, P<0.03): significantly reduced
decrease of tumor size ([8]; Day 19, 1 mg/kg subcutaneous twice a week): 47%
decrease of tumor size ([8]; Day 22, 1 mg/kg subcutaneous twice a week): 37%
decrease of tumor size ([8]; Day 25, 1 mg/kg subcutaneous twice a week): 24%
decrease of tumor size ([8]; Day 29, 1 mg/kg subcutaneous twice a week): 13%
morphology of tumor samples compared to Control group ([8]; immunohistochemical specimens, 30 days treatment): more differentiated morphology
apoptosis increased, DU-145 cells ([9]; 0.1 μm): 46%
apoptosis increased, DU-145 cells ([9]; 0.5 μm): 115%
apoptosis increased, DU-145 cells ([9]; 1 μm): 285%
apoptosis increased, DU-145 cells ([9]; 5 μm): 389%
cell proliferation decreased, HT-29 cells ([10]; 0.1 μm): 0%
cell proliferation decreased, HT-29 cells ([10]; 0.5 μm): 5%
cell proliferation decreased, HT-29 cells ([10]; 1 μm): 46%
cell proliferation decreased, HT-29 cells ([10]; 4 μm): 62%
reduction of CDK2 expression in tumor samples [11]: approximately 80%
